Structures can show the parent of a compound that is named as a salt.

This assay addresses mGluR5 (Homo sapiens, UniProt P41594). Briefly: inhibition of the glutamate induced elevation of intracellular Ca2+ concentration. The note with it: for inhibition at 10 µM: read-out: mGluR5 Activity inh. at 10 μM [%]; for mGluR5 Activity inh. at 10 μM [%]: inhibition of glutamate induced elevation of intracellular Ca2+ concentration at 10 μM.

mGluR5, sequence (P41594 21-1180 isoform P41594-2 limits assumed): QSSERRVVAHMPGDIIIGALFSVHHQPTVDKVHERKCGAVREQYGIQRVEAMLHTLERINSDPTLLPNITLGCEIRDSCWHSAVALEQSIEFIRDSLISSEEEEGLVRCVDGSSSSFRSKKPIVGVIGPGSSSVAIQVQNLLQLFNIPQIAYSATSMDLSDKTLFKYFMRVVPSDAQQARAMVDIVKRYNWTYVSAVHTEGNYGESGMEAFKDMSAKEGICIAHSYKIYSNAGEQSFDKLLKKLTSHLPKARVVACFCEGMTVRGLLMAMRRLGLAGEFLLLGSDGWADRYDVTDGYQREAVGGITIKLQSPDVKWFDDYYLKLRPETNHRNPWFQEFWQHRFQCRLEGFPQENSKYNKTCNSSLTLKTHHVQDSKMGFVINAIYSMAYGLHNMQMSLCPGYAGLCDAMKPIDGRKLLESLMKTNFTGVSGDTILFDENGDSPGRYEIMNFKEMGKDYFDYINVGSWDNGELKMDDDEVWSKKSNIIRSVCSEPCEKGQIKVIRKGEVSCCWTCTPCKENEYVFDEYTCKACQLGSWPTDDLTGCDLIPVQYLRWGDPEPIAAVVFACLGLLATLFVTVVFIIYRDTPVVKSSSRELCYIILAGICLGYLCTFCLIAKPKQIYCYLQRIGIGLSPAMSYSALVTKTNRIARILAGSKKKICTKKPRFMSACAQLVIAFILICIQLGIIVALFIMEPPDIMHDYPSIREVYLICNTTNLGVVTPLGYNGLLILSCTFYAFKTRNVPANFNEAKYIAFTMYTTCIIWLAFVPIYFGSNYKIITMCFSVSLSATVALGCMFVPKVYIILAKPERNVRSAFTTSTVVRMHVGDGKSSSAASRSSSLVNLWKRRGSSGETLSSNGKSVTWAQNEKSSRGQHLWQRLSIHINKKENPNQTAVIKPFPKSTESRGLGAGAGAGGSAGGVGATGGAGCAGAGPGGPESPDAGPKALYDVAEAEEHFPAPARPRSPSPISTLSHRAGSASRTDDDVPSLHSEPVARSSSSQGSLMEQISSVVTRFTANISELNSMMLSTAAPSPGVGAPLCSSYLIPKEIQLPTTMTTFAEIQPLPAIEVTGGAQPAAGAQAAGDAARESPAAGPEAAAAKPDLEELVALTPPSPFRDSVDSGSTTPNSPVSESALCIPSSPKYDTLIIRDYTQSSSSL
Source text: This can be determined in vitro for example at recombinant human metabotropic glutamate receptors, especially PLC-coupled subtypes thereof such as mGluR5, using different procedures like, for example, measurement of the inhibition of the agonist induced elevation of intracellular Ca^2+ concentration in accordance with L. P. Daggett et al., Neuropharm.

`Cc1ccc(Nc2ncc(C(=O)N3C(C)CCCC3C)cc2Cl)cn1` (centres unmarked) [Compound 4.48, [5-Chloro-6-(6-methyl-pyridin-3-ylamino)-pyridin-3-yl]-(2,6-dimethyl-piperidin-1-yl)-methanone]: the inhibition at 10 µM was determined as 99%.
Turning to `COc1ccc(Nc2ncc(C(=O)N3CCCC(C)C3)cc2Cl)cn1` (racemic) [Compound 2.6, rac-[5-Chloro-6-(6-methoxy-pyridin-3-ylamino)-pyridin-3-yl]-(3-methyl-piperidin-1-yl)-methanone], the inhibition at 10 µM came to 98%.
Turning to `Cc1ccc(Nc2ncc(C(=O)N3CCCCC3c3ccccn3)cc2Cl)cn1` (centres unmarked) [Compound 4.42, [5-Chloro-6-(6-methyl-pyridin-3-ylamino)-pyridin-3-yl]-(3,4,5,6-tetrahydro-2H-[2,2′]bipyridinyl-1-yl)-methanone], the inhibition at 10 µM was determined as 98%.
For `O=C(c1ccc(Nc2ccc(Cl)cc2)nc1)N1CC2CCC1C2` (racemic) [Compound 4.12, rac-(2-Aza-bicyclo[2.2.1]hept-2-yl)-[6-(4-chloro-phenylamino)-pyridin-3-yl]-methanone], the inhibition at 10 µM came out at 96%.
Consider `CC1CCCN(C(=O)c2ccc(Nc3ccccc3)nc2)C1` (centres unmarked) [Compound 1.15, (3-Methyl-piperidin-1-yl)-(6-phenylamino-pyridin-3-yl)-methanone hydrochloride], for which the inhibition at 10 µM came out at 88%.
Still for that read-out and setting: with `CCC=C1CCCN(C(=O)c2cnc(Nc3ccc(C)nc3)c(Cl)c2)C1` [Compound 4.58, [5-Chloro-6-(6-methyl-pyridin-3-ylamino)-pyridin-3-yl]-[3-propylidene-piperidin-1-yl]-methanone] the figure was 93%.
In the case of `COc1ccc(Nc2ccc(C(=O)N3C[C@@H](C)O[C@@H](C)C3)cn2)cc1.Cl` [Compound 1.21, (cis-Z 6-Dimethyl-morpholin-4-yl)-[6-(4-methoxy-phenylamino)-pyridin-3-yl]-methanone hydrochloride], the “mGluR5 Activity inh. at 10 μM [%]” value turned out to be 57%.
For `CC1CCCN(C(=O)c2ccc(Nc3ccc(Cl)cc3)nn2)C1` (racemic) [Compound 8.2, rac-[6-(4-Chloro-phenylamino)-pyridazin-3-yl]-(3-methyl-piperidin-1-yl)-methanone], the inhibition at 10 µM came out at 100%.
On the same count and under the same terms, with `C=CC1CCCCN1C(=O)c1cnc(Nc2ccc(C)nc2)c(Cl)c1` (centres unmarked) [Compound 4.55, [5-Chloro-6-(6-methyl-pyridin-3-ylamino)-pyridin-3-yl]-(2-vinyl-piperidin-1-yl)-methanone] the figure was 96%; with `CC1CCN(C(=O)c2ccc(Nc3ccc(Cl)cc3)nn2)CC1` [Compound 8.5, [6-(4-Chloro-phenylamino)-pyridazin-3-yl]-(4-methyl-piperidin-1-yl)-methanone], 86%; with `COc1cc(C(=O)N2CCCCC2)cnc1Nc1ccc(C)nc1` [Compound 6.4, [5-Methoxy-6-(6-methyl-pyridin-3-ylamino)-pyridin-3-yl]-piperidin-1-yl-methanone], 98%.
Same read-out and setting: with `COc1cc(C(=O)N2CCCCCC2)cnc1Nc1ccc(Cl)cc1` [Compound 6.1, Azepan-1-yl-[6-(4-chloro-phenylamino)-5-methoxy-pyridin-3-yl]-methanone] the figure was 97%; with `Cc1ncc(Nc2ncc(C(=O)N3CCCC(C)C3)cc2Cl)cn1` (centres unmarked) [Compound 2.16, [5-Chloro-6-(2-methyl-pyrimidin-5-ylamino)-pyridin-3-yl]-(3-methyl-piperidin-1-yl)-methanone], 97%.
The same measure, in the same setting: with `Cc1ccc(Nc2ncc(C(=O)N3CCCCC3CCCl)cc2Cl)cn1` (centres unmarked) [Compound 4.47, [2-(2-Chloro-ethyl)-piperidin-1-yl]-[5-chloro-6-(6-methyl-pyridin-3-ylamino)-pyridin-3-yl]-methanone] the figure was 97%; with `CC1CCN(C(=O)c2ccc(Nc3ccc(Cl)cc3)nc2)CC1` [Compound 4.4, [6-(4-Chloro-phenylamino)-pyridin-3-yl]-(4-methyl-piperidin-1-yl)-methanone], 98%.
Take `Cc1cccc(C#C[C@]2(O)CCC[C@@H]3[C@H]2CCN3C(=O)c2ccc(Nc3ccc(Cl)cc3)nc2)c1` (relative stereo) [Compound 4.14, [6-(4-Chloro-phenylamino)-pyridin-3-yl]-(rel-(3aR,4S,7aR)-4-hydroxy-4-m-tolylethynyl-octahydro-indol-1-yl)-methanone]: the inhibition at 10 µM was 86%.
Same read-out and setting: with `Cc1ccc(Nc2ccc(C(=O)N3CCCCCC3)cn2)cn1` [Compound 4.15, Azepan-1-yl-[6-(6-methyl-pyridin-3-ylamino)-pyridin-3-yl]-methanone] the figure was 98%; with `CCC[C@H]1CCCCN1C(=O)c1cnc(Nc2ccc(C)nc2)c(Cl)c1` [Compound 4.35, [5-Chloro-6-(6-methyl-pyridin-3-ylamino)-pyridin-3-yl]-((S)-2-propyl-piperidin-1-yl)-methanone], 85%.
With `Cc1ccc(Nc2ncc(C(=O)N3CCCC(C)C3C)cc2Cl)cn1` (centres unmarked) [Compound 4.20, [5-Chloro-6-(6-methyl-pyridin-3-ylamino)-pyridin-3-yl]-(2,3-dimethyl-piperidin-1-yl)-methanone], the inhibition at 10 µM was 100%.
In the case of `Cc1ccc(Nc2ccc(C(=O)N3CCC[C@H](C)C3)cn2)cn1` [Compound 4.13a, (S-3-Methyl-piperidin-1-yl)-[6-(6-methyl-pyridin-3-ylamino)-pyridin-3-yl]-methanone], the “mGluR5 Activity inh. at 10 μM [%]” value is 97%.
As to `Cc1ccc(Nc2ncc(C(=O)N3CCCCC3)cc2F)cn1` [Compound 9.2, [5-Fluoro-6-(6-methyl-pyridin-3-ylamino)-pyridin-3-yl]-piperidin-1-yl-methanone], the inhibition at 10 µM turned out to be 99%.
Regarding `CCN(CC)C(=O)c1ccc(Nc2ccc(C)cc2)nc1` [Compound 1.2, N,N-Diethyl-6-p-tolylamino-nicotinamide hydrochloride], the inhibition at 10 µM is 93%.
On the same count and under the same terms, with `Cc1ccc(Nc2ncc(C(=O)N3CCCC[C@@H]3C(C)C)cc2Cl)cn1` [Compound 4.29, [5-Chloro-6-(6-methyl-pyridin-3-ylamino)-pyridin-3-yl]-((R)-2-isopropyl-piperidin-1-yl)-methanone] the figure was 86%; with `Cc1ccc(Nc2ncc(C(=O)N3CCCC3c3ccc(C)s3)cc2Cl)cn1` (centres unmarked) [Compound 4.75, [5-Chloro-6-(6-methyl-pyridin-3-ylamino)-pyridin-3-yl]-[2-(5-methyl-thiophen-2-yl)-pyrrolidin-1-yl]-methanone], 96%.
The same measure, in the same setting: with `CC[C@@H]1CCCCN1C(=O)c1cnc(Nc2ccc(OC)nc2)c(Cl)c1` [Compound 2.24, [5-Chloro-6-(6-methoxy-pyridin-3-ylamino)-pyridin-3-yl]-((R)-2-ethyl-piperidin-1-yl)-methanone] the figure was 97%; with `CCCC1OCCCCN1C(=O)c1cnc(Nc2ccc(C)nc2)c(Cl)c1` (centres unmarked) [Compound 4.66, [5-Chloro-6-(6-methyl-pyridin-3-ylamino)-pyridin-3-yl]-(2-propyl-[1,3]oxazepan-3-yl)-methanone], 91%.
On to `Cc1ccc(Nc2ncc(C(=O)N3CCCC4CCCC43)cc2Cl)cn1` (centres unmarked) [Compound 4.25, [5-Chloro-6-(6-methyl-pyridin-3-ylamino)-pyridin-3-yl]-(octahydro-[1]pyridin-1-yl)-methanone], for which the “mGluR5 Activity inh. at 10 μM [%]” value is given as 98%.
Take `CCOc1cc(C(=O)N2CCCCCC2)cnc1Nc1ccc(C)nc1` [Compound 6.6, Azepan-1-yl-[5-ethoxy-6-(6-methyl-pyridin-3-ylamino)-pyridin-3-yl]-methanone]: the inhibition at 10 µM is 54%.
For `CCN(CC)C(=O)c1ccc(Nc2ccc(Cl)cc2)nc1` [Compound 1.1, 6-(4-Chloro-phenylamino)-N,N-diethyl-nicotinamide hydrochloride], the inhibition at 10 µM was 95%.
On the same count and under the same terms, with `CCO[C@@H]1CCCN1C(=O)c1cnc(Nc2ccc(C)nc2)c(Cl)c1` [Compound 4.74, [5-Chloro-6-(6-methyl-pyridin-3-ylamino)-pyridin-3-yl]-((R)-2-ethoxy-pyrrolidin-1-yl)-methanone] the figure was 92%; with `CCC[C@@H]1CCC[C@@H](CC)N1C(=O)c1cnc(Nc2ccc(C)nc2)c(Cl)c1` [Compound 4.51, [5-Chloro-6-(6-methyl-pyridin-3-ylamino)-pyridin-3-yl]-((2R,6R)-2-ethyl-6-propyl-piperidin-1-yl)-methanone], 96%; with `O=C(c1ccc(Nc2ccc(Br)cc2)nc1)N1CCCCC1` [Compound 1.6, [6-(4-Bromo-phenylamino)-pyridin-3-yl]-piperidin-1-yl-methanone], 96%.
Same read-out and setting: with `O=C(c1ccc(Nc2ccc(F)c(F)c2)nc1)N1CCCCC1` [Compound 2.3, [6-(3,4-Difluoro-phenylamino)-pyridin-3-yl]-piperidin-1-yl-methanone] the figure was 65%.
The same measure, in the same setting: with `O=C(c1ccc(Nc2ccc(Cl)cn2)nc1)N1CCCCC1` [Compound 2.1, [6-(5-Chloro-pyridin-2-ylamino)-pyridin-3-yl]-piperidin-1-yl-methanone] the figure was 60%; with `CC1CCCN(C(=O)c2ccc(Nc3cccc(Cl)c3)nc2)C1` (centres unmarked) [Compound 1.16, [6-(3-Chloro-phenylamino)-pyridin-3-yl]-(3-methyl-piperidin-1-yl)-methanone hydrochloride], 54%.
Take `CCCCC1OCCCN1C(=O)c1cnc(Nc2ccc(C)nc2)c(Cl)c1` (centres unmarked) [Compound 4.70, (2-Butyl-[1,3]oxazinan-3-yl)-[5-chloro-6-(6-methyl-pyridin-3-ylamino)-pyridin-3-yl]-methanone]: the inhibition at 10 µM is 96%.
On to `CCCC1COCCN1C(=O)c1cnc(Nc2ccc(C)nc2)c(Cl)c1` (centres unmarked) [Compound 4.77, [5-Chloro-6-(6-methyl-pyridin-3-ylamino)-pyridin-3-yl]-(3-propyl-morpholin-4-yl)-methanone], for which the inhibition at 10 µM is 100%.
On to `CCC(CC)C1CCCCN1C(=O)c1cnc(Nc2ccc(C)nc2)c(Cl)c1` (centres unmarked) [Compound 4.39, [5-Chloro-6-(6-methyl-pyridin-3-ylamino)-pyridin-3-yl]-[2-(1-ethyl-propyl)-piperidin-1-yl]-methanone], for which the inhibition at 10 µM was determined as 96%.
